Measured values taken from US20250144126A1, “APPLICATION OF 5'-MONOPHOSPHATE NUCLEOTIDE AND MIXTURE THEREOF IN PREPARATION OF DRUG OR FOOD FOR IMPROVING MITOCHONDRIAL FUNCTION” (priority 2021, published 2025).
“Also recorded” adds a separate entry of the source.

System: H2O2-induced senescent mouse embryonic fibroblasts NIH/3T3
Assay: Seahorse xFe96 mitochondria stress detection experiment in H2O2-induced senescent cells
Assay type: cell-based
Conditions: 24 h incubation after 200 μmol/L H2O2 for 4 h; for mitochondrial basal respiration / mitochondrial oxygen consumption rate (OCR): vs blank and model control; for mitochondrial ATP production capability / mitochondrial maximum respiratory value / mitochondrial respiratory reserve: vs model control, P<0.05
Method: In this example, concentrations of the 5′-adenosine monophosphate and the 5′-disodium uridine obtained in Example 1 were 100 μmol/L and 200 μmol/L respectively, and were recorded as AMP 100 group and UMP 200 group, respectively. […] Model control group was a senescence cell model group intervened by hydrogen peroxide. Blank control group was a group free of mixture of 5′-adenosine monophosphate, 5′-disodium uridine and 5′-monophosphate nucleotide and without hydrogen peroxide intervention.
The cells used in the example were mouse embryonic fibroblasts NIH/3T3, which were purchased from Cell Bank of Chinese Academy of Sciences.
The cells were cultured in a DMEM high-sugar medium containing 1% penicillin/streptomycin and 10% fetal bovine serum in an incubator with 5% of CO2 at 37° C. under saturated humidity conditions. The establishment of the senescence cell model was as follows: After the cells grew to the wall of a culture vessel, different concentrations of hydrogen peroxide were used for intervention, where the concentrations of hydrogen peroxide were 50 μmol/L, 100 μmol/L, 200 μmol/L, 400 μmol/L, and 800 μmol/L. The medium containing hydrogen peroxide was removed after incubation for 4 hours, and a normal complete medium (DMEM high-sugar medium containing 1% penicillin/streptomycin and 10% fetal bovine serum) was added for incubation for 24 hours, then the cell activity of the cultured cells was detected by using a CCK-8 cell active kit, the expression of β-galactosidase was detected, and the expressions of the senescent marker p16INK4A and p21Waf1/Cipl were detected by western blot method.
In this example, the oxygen consumption rate (OCR), basal respiration, maximum respiratory value, ATP production capability and respiratory reserve of mitochondria were determined by using the Seahorse xFe96 (Agilent) mitochondria stress detection experiment. 20000 NIH/3T3 cells were inoculated in each well of a 96-well cell culture plate (Nunc, 165306) except the background wells at four corners. After overnight incubation and the cells grew to the wall of the culture plate, the cells were intervened by 200 μmol/L hydrogen peroxide for 4 hours, then the medium containing hydrogen peroxide was removed, and a normal complete medium containing nucleotides with different concentrations (DMEM high-sugar medium containing 1% of penicillin/streptomycin and 10% of fetal bovine serum, and the concentrations of 5′-adenosine monophosphate and 5′-disodium uridine were respectively 100 μmol/L and 200 μmol/L, and the concentration of the nucleotide mixture was 200 μmol/L) was added for incubation for 24 hours. A probe panel (xFe96 FluxPak, Agilent, 102353-100) was hydrated with a hydration solution (XF Calibrant Solution, Agilent, 100840-000) one day in advance, and then was placed in a non-CO2 incubator for incubation for at least 12 hours at 37° C. The experimental culture solution was prepared on the day of the experiment, 1 mL of 2.5 mM glucose (Glucose, Sigma, G7528), 1 mL of 2 mM glutamine (L-glutamine, Sigma, G8540), and 1 mL of 1 mM sodium pyruvate (Sodium pyruvate, Sigma, S8636) were added to 100 mL of base medium (Seahorse XF Basemedium, Agilent, 102353-100), and the pH of the culture solution was adjusted to 7.4±0.05 with 1N of NaOH. The culture solution of the cell culture plate was replaced with the experimental culture solution, 40 μL/well of the original medium was removed from the cell culture plate, then 160 μL/well of the experimental culture solution was added into the cell culture plate for dilution, and then 160 μL of the mixed culture solution was sucked out; the process was repeated for 2-3 times, finally the volume of the experimental culture solution in each well was 175 μL, and the cell culture plate was stood for 1 hour at 37° C.

SMILES | mitochondrial basal respiration (200 μmol/L) | mitochondrial ATP production capability (200 μmol/L) | mitochondrial maximum respiratory value (200 μmol/L) | mitochondrial oxygen consumption rate (OCR) (200 μmol/L) | mitochondrial respiratory reserve (200 μmol/L) | mitochondrial basal respiration (100 μmol/L) | mitochondrial oxygen consumption rate (OCR) (100 μmol/L) | mitochondrial ATP production capability (100 μmol/L) | mitochondrial maximum respiratory value (100 μmol/L) | mitochondrial respiratory reserve (100 μmol/L)
Nc1ccn([C@@H]2O[C@H](COP(=O)(O)O)[C@@H](O)[C@H]2O)c(=O)n1 [CMP, 5′-cytidine monophosphate] | increased and significantly lower than that in the nucleotide mixture group; also recorded: little effect | increased (P<0.05) but significantly lower than that in the nucleotide mixture group; also recorded: little effect | increased (P<0.05) but significantly lower than that in the nucleotide mixture group; also recorded: little effect |  |  |  |  |  |  | 
O=c1ccn([C@@H]2O[C@H](COP(=O)([O-])[O-])[C@@H](O)[C@H]2O)c(=O)[nH]1.[Na+].[Na+] [UMP, 5′-disodium uridine] | significantly higher than that of the model control group; also recorded: returned to normal level | significantly increased | significantly increased | returned to normal level | significantly increased |  |  |  |  | 
Nc1ncnc2c1ncn2[C@@H]1O[C@H](COP(=O)(O)O)[C@@H](O)[C@H]1O [AMP, 5′-adenosine monophosphate] |  |  |  |  |  | returned to normal level | returned to normal level | significantly increased | significantly increased | significantly increased
Nc1nc2c(ncn2[C@@H]2O[C@H](COP(=O)([O-])[O-])[C@@H](O)[C@H]2O)c(=O)[nH]1.[Na+].[Na+] [GMP, 5′-disodium guanylate] |  | increased (P<0.05) but significantly lower than that in the nucleotide mixture group; also recorded: little effect | increased (P<0.05) but significantly lower than that in the nucleotide mixture group; also recorded: little effect |  | increased (P<0.05) but significantly lower than that in the nucleotide mixture group; also recorded: little effect |  |  |  |  | 
